Reference: BindingDB's records for doi:10.1016/j.bmcl.2006.05.053 (Institute For Molecular Studies, 2006)

Biological target: Mu-type opioid receptor (Rattus norvegicus, UniProt P33535)
Experiment: Displacement of [3H]DAMGO from mu opioid receptor in rat brain homogenate

Mu-type opioid receptor, sequence (P33535 whole entry): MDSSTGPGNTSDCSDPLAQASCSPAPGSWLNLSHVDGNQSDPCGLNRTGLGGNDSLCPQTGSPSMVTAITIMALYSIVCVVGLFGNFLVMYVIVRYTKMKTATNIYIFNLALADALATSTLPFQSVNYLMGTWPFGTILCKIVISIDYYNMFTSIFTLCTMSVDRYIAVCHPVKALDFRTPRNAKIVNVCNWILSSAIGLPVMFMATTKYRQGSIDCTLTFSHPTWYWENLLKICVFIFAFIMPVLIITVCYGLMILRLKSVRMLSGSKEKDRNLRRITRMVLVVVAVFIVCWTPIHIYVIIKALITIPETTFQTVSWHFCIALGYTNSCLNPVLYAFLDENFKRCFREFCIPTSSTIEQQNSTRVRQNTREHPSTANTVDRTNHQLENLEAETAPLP

## CN[C@@H](Cc1ccc(O)cc1)CN(C)[C@H](CNCc1ccccc1)Cc1ccc(O)cc1 [4-[(2S)-3-{[(2S)-1-(benzylamino)-3-(4-hydroxyphenyl)propan-2-yl](methyl)amino}-2-(methylamino)propyl]phenol]
  IC50: 2 nM
